From the supplement of paper PMC5579334

How the values were obtained:
HS-PSS [1] = test: relative IC50 (inflection point of fitted dose-response curve, CellTox-Green cytotoxicity, 72 h; top asymptote may be below 50%); higher = less potent
Method in brief: (§1)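 MPNST cell lines and primary human Schwann cells were incubated 72 h at 37 °C in 384-well plates holding five 10-fold compound dilutions. CellTox-Green was added before seeding at a final 1:1000 dilution and reported fluorescence from DNA released by disrupted cells. Signals were scaled to vehicle and positive-control wells, and cultures failing plate quality control were dropped. Drug sensitivity score and relative IC50 come from four-parameter logistic fits, with IC50 censored at the top concentration.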

HSC1 [2] = test: as above
Method in brief: as §1

HSC2 [3] = test: as above
Method in brief: as §1

S1507-2 [4] = test: as above
Method in brief: as §1

ST8814 [5] = test: as above
Method in brief: as §1

STS26T [6] = test: as above
Method in brief: as §1

HS-Sch-2 = test: relative IC50 (inflection point of fitted dose-response curve, CellTiter-Glo viability, 72 h; top asymptote may be below 50% inhibition); higher = less potent
Method in brief: (§2)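 MPNST cell lines and primary human Schwann cells (750–1000 cells per well) went into 384-well plates preprinted with each compound at five concentrations in 10-fold steps. Plates were incubated 72 h at 37 °C, 5% CO2. Viability was read as CellTiter-Glo ATP luminescence, scaled between vehicle and positive-control wells, with duplicates averaged where present. Percent inhibition is at the top concentration; drug sensitivity score and relative IC50 (censored at top concentration) come from four-parameter logistic fits.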

HSC1 [7] = test: as above
Method in brief: as §2

HSC2 [8] = test: as above
Method in brief: as §2

S1507-2 [9] = test: as above
Method in brief: as §2

S462 = test: as above
Method in brief: as §2

YST-1 = test: as above
Method in brief: as §2

HS-PSS [10] = test: as above
Method in brief: as §2

ST8814 [11] = test: as above
Method in brief: as §2

STS26T [12] = test: as above
Method in brief: as §2

SMILES	relative IC50 (HS-PSS [1]) [µM]	relative IC50 (HSC1 [2]) [µM]	relative IC50 (HSC2 [3]) [µM]	relative IC50 (S1507-2 [4]) [µM]	relative IC50 (ST8814 [5]) [µM]	relative IC50 (STS26T [6]) [µM]	relative IC50 (HS-Sch-2) [µM]	relative IC50 (HSC1 [7]) [µM]	relative IC50 (HSC2 [8]) [µM]	relative IC50 (S1507-2 [9]) [µM]	relative IC50 (S462) [µM]	relative IC50 (YST-1) [µM]	relative IC50 (HS-PSS [10]) [µM]	relative IC50 (ST8814 [11]) [µM]	relative IC50 (STS26T [12]) [µM]
Cc1c(Cn2c(C)nc3c(C(=O)O)cc(N4CCOCC4)cc32)cccc1C(F)(F)F	> 10	> 10	> 10	> 10	> 10	> 10	> 10	> 10	> 10	0.931	> 10	> 10	–	–	–
COc1cc2c(cc1O)CC[C@@H]1[C@@H]2CC[C@]2(C)[C@@H](O)CC[C@@H]12 [2-methoxyestradiol]	> 10	–	1.5	1.66	3.13	1.02	0.841	1.17	1.23	1.86	0.747	1.65	3.06	2.58	0.922
COc1cc(O)c2c(c1)/C=C/C[C@H](O)[C@H](O)C(=O)/C=C\C[C@H](C)OC2=O [(5Z)-7-Oxozeaenol]	> 10	–	3.9	3.52	–	3.07	2.79	1.69	1.32	2.45	1.66	2.02	3.82	1.33	1.36
Cc1sc2c(c1C)C(c1ccc(Cl)cc1)=N[C@@H](CC(=O)OC(C)(C)C)c1nnc(C)n1-2 [(+)JQ1]	–	> 10	> 10	0.546	0.404	> 10	–	0.42	0.462	0.161	0.386	–	–	0.208	0.226
Cc1cc2c(C(C)C)c(O)c(O)c(C=O)c2c(O)c1-c1c(C)cc2c(C(C)C)c(O)c(O)c(C=O)c2c1O [AT 101]	30.3	10.7	> 100	> 100	–	> 100	5.35	3.72	1.74	16.3	3.79	5.3	15.3	7.15	8.98
CC[C@H](CC#N)OC(=O)N[C@@H](C)c1cccc(NC(=O)Nc2ccc(-c3cnco3)c(OC)c2)c1 [AVN944]	> 10	> 10	> 10	> 10	0.886	–	0.64	0.108	0.0934	0.5	0.32	0.317	0.309	0.614	0.398
COc1cc(OC2CCN(C)CC2)ccc1Nc1ncc2c(n1)n(C1CCCC1)c(=O)n2C [AZ 3146]	3.14	> 10	–	3.51	2.96	1.95	1.67	3.38	3.34	2.69	0.964	1.48	1.85	2.58	1.25
CCN(CCO)CCCOc1ccc2c(Nc3cc(CC(=O)Nc4cccc(F)c4)[nH]n3)ncnc2c1 [AZD1152-HQPA]	> 1	> 1	–	> 1	0.206	0.161	> 1	0.0223	0.0352	0.107	0.00543	0.0057	–	0.152	0.0856
COc1ccc(-c2ccc3c(N4CCOC[C@@H]4C)nc(N4CCOC[C@@H]4C)nc3n2)cc1CO [AZD8055]	–	> 10	> 10	> 10	–	> 10	0.0833	0.0299	0.028	0.0511	0.0248	0.0205	0.0917	0.138	0.0695
CC[C@@]1(O)C(=O)OCc2c1cc1n(c2=O)Cc2cc3ccccc3nc2-1 [Camptotechin]	–	0.0757	0.136	0.244	0.0146	0.126	–	0.0473	0.0405	0.1	0.0302	–	–	0.0307	0.0628
CCCCCOC(=O)Nc1nc(=O)n([C@@H]2O[C@H](C)[C@@H](O)[C@H]2O)cc1F [Capecitabine]	> 10	> 10	> 10	> 10	> 10	> 10	> 10	> 10	> 10	> 10	> 10	> 10	> 10	> 10	–
O=C(O)C1(C(=O)O)CCC1.[NH2-].[NH2-].[Pt+2] [Carboplatin aq]	–	27.6	20.5	37.3	25.1	27.3	–	14.5	14.6	20.6	17	–	–	24.4	19.5
CCN(CC)CCCC(C)Nc1ccnc2cc(Cl)ccc12 (centres undefined) [Chloroquine aq]	–	15.8	19.9	3.28	2.82	3.19	–	12.3	13.1	1.8	6.94	–	–	3.1	5.43
C[C@H]1C=C2C(=O)O[C@H]3CC[C@@H](C1)[C@@]23O [Galiellalactone]	> 25	–	> 50	15.7	> 50	14.6	4.62	5.26	9.86	9.35	8.04	9.96	6.45	10.1	7.72
